The values that follow come from paper PMC4322365, “A Ligand-observed Mass Spectrometry Approach Integrated into the Fragment Based Lead Discovery Pipeline” (Scientific Reports, 2015).

The assay addresses T1, NS5B wild-type (Hepatitis C virus genotype 1b, UniProt P26663).
T1 construct: NS5B with a C-terminal 10-His tag was expressed in E. coli; 10-His (C); made in house; host or cells: E. coli
Put plainly: In-solution binding specificity, ligand-observed MS, wild-type NS5B. The conditions noted are these: WT + 204; defined as 100%. The text has this: To evaluate the binding specificity of fragment 204 to the palm domain of NS5B through interacting with certain residues indicated in the crystallographic data, we prepared two presumable binding-site mutants in the palm domain (C366A and M414T), and a control mutant in the thumb domain (M423T). […] Therefore, this experiment strongly implicated the finding by X-ray crystallography that fragment 204 binds to the palm domain of NS5B through interaction with Cys366 and Met414 was also valid in solution.
NS5B with a C-terminal 10-His tag was expressed in E. coli. Site-directed mutagenesis was performed using the Quick Site-directed mutagenesis kit according to the manufacturer's instructions (Stratagene, China). All constructs were verified by DNA sequencing. […]
In the primary screening, a mixture of 384 fragments (each at a final concentration of 25 μM) and NS5B at 50 μM was prepared in the binding buffer of 20 mM MES (pH 6.5), 300 mM NaCl and 10% glycerol, and incubated for 40 min at 25°C. […] The supernatant containing the ligands was evaporated by a speed vacuum, reconstituted in 80% methanol, and analyzed by LC/MS. […] Samples were all prepared in duplicate and analyzed separately.

For the molecule `O=C(O)c1ccc(C(F)(F)F)cc1` [Fragment 204], the “MS int. (%)” value stood at 100.0%.
